Assay results published in ChEMBL document CHEMBL5236588 (J Med Chem, 2022).
Residues, ends and D or L forms follow the SMILES beside them.

Assays:
Homo sapiens = organism: Homo sapiens; test: Anticoagulant activity in human plasma assessed as prolongation of activated partial thromboplastin time by measuring concentration required to double aPTT; type: functional
[1] = Inhibition of human FXIa using Boc-Glu(OBzl)-AR-MCA as substrate
[2] = Inhibition of human cationic trypsin using Boc-VPR-MCA as susbtrate
[3] = Inhibition of human FXa using Z-Pyr-GR-MCA as substrate
Plasma kallikrein = Plasma kallikrein (Homo sapiens, UniProt P03952); test: Inhibition of human plasma kallikrein using Z-FR-MCA as substrate; type: cell-free
[4] = Inhibition of human beta-FIXa using Boc-QGR-MCA as substrate
[5] = biological target: T1, Suppressor of tumorigenicity 14 protein (Homo sapiens, UniProt Q9Y5Y6); test: Inhibition of recombinant human matriptase using Boc-QAR-MCA as substrate
T1 sequence (Q9Y5Y6 whole entry): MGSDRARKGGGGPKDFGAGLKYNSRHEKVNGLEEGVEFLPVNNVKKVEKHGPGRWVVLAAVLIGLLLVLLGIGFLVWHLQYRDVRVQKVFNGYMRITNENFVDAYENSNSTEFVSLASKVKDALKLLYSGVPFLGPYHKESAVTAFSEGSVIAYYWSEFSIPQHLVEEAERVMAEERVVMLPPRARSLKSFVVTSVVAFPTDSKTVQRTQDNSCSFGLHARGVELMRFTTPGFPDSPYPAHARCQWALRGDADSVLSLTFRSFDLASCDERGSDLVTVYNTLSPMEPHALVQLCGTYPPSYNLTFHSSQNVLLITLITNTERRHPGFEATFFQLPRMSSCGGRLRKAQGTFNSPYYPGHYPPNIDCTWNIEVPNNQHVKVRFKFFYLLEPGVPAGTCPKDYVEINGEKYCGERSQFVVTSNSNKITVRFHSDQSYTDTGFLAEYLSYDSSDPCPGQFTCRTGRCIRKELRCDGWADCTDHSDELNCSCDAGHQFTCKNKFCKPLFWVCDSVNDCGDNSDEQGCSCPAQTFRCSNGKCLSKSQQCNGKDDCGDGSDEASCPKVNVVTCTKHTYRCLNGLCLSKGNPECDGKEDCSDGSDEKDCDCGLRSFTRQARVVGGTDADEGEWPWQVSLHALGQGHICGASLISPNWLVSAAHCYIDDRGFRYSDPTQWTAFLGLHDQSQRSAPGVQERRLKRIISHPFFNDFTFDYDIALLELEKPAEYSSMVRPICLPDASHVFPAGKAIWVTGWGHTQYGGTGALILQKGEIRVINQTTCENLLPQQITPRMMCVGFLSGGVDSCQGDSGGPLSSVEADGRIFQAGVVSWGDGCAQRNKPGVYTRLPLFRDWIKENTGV

Plasminogen = Plasminogen (Homo sapiens, UniProt P00747); test: Inhibition of human plasmin using Ac-RM(O2)YR-pNA as substrate
[6] = Inhibition of FXIIa (unknown origin) using Ac-QRFR-pNA as substrate measured at 30 sec interval by microplate reader assay; set-up: species or system Homo sapiens
[7] = Inhibition of human FXIIa
[8] = Stability of compound in human serum at 50 uM incubated for 24 hrs by reversed phase HPLC analysis; type: ADME, cell-free
[9] = Stability of compound in human serum at 50 uM incubated for 8 hrs by reversed phase HPLC analysis; type: ADME, cell-free; details: read-out: Stability

Chain of Plasma kallikrein (P03952 20-390 limits assumed): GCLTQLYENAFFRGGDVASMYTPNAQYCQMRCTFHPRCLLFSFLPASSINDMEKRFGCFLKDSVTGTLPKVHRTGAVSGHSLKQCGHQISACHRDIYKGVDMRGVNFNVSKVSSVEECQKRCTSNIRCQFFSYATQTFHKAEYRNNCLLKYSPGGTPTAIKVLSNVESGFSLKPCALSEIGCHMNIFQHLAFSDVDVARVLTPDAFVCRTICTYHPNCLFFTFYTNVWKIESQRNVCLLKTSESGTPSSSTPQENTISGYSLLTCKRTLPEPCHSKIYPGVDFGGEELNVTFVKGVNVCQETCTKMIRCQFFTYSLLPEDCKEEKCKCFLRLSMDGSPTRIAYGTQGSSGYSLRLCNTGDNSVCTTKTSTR
Chain of Plasma kallikrein (P03952 391-638 limits assumed): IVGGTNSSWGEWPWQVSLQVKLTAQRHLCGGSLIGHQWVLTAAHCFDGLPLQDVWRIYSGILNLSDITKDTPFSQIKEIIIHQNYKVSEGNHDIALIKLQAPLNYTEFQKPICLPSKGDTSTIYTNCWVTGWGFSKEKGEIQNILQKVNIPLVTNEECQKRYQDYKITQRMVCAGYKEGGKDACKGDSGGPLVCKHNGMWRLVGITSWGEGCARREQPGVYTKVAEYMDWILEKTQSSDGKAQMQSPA
Chain of Plasminogen (P00747 97-580 limits assumed): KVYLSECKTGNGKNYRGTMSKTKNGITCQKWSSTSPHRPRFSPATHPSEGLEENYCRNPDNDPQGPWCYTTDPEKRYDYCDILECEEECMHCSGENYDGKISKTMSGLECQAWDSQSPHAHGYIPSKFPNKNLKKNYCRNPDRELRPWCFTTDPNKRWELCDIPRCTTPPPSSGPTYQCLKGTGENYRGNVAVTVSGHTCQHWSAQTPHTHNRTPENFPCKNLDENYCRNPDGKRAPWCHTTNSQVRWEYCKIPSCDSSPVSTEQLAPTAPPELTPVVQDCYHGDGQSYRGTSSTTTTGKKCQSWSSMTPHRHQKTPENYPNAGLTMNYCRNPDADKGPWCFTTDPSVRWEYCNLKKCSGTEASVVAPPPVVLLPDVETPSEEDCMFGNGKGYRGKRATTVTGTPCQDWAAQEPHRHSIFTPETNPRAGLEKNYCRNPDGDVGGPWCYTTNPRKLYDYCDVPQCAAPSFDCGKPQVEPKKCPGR
Chain of Plasminogen (P00747 581-810 limits assumed): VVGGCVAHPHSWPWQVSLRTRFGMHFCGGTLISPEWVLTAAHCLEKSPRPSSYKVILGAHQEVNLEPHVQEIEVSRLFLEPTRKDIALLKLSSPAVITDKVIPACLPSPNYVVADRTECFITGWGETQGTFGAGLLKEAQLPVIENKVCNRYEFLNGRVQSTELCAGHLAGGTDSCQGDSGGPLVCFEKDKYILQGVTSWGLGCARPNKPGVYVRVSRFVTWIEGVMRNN

Compound	IC50 [1]	IC50 [3]	IC50 (Plasma kallikrein)	IC50 [4]	Ki [5]	Ki [6]	Stability [8]	further results
CC[C@H](C)[C@@H]1NC(=O)[C@H](CCCNC(=N)N)NC(=O)[C@H](Cc2ccccc2)NC(=O)[C@@H](NC(=O)[C@H](CCCNC(=N)N)NC(=O)CNC(=O)CN)CSSC[C@@H]2NC(=O)[C@H](C)NC(=O)CNC(=O)[C@@H]3CCCN3C(=O)[C@@H]3CSSC[C@@H](C(=O)NCC(=O)N[C@@H](CO)C(=O)O)NC(=O)[C@H](Cc4ccc(O)cc4)NC(=O)CNC(=O)[C@H](CC(N)=O)NC(=O)CNC(=O)[C@H](CCCNC(=N)N)NC(=O)[C@H](CSSC[C@H](NC(=O)[C@H](CCCCN)NC(=O)[C@H](CCCCN)NC(=O)CNC1=O)C(=O)N[C@@H](CCCNC(=N)N)C(=O)N[C@@H](CCCNC(=N)N)C(=O)N[C@@H](CC(=O)O)C(=O)N[C@@H](CO)C(=O)N[C@@H](CC(=O)O)C(=O)N3)NC(=O)[C@H]([C@@H](C)CC)NC2=O (HELM PEPTIDE1{G.G.R.C.F.R.I.G.K.K.C.R.R.D.S.D.C.P.G.A.C.I.C.R.G.N.G.Y.C.G.S}$PEPTIDE1,PEPTIDE1,4:R3-21:R3|PEPTIDE1,PEPTIDE1,11:R3-23:R3|PEPTIDE1,PEPTIDE1,17:R3-29:R3$$$V2.0) [listing 1 of 2 here]	–	–	–	–	–	–	–	Activity (Homo sapiens): 2.5 µM
CC[C@H](C)[C@@H]1NC(=O)[C@@H]2CSSC[C@H](NC(=O)[C@H](CCCNC(=N)N)NC(=O)CNC(=O)CN)C(=O)N[C@@H](Cc3ccccc3)C(=O)N[C@@H](CCCNC(=N)N)C(=O)N[C@@H]([C@@H](C)CC)C(=O)N[C@@H](CC(C)C)C(=O)N[C@@H](CCCCN)C(=O)N[C@@H](CCCCN)C(=O)N[C@H]3CSSC[C@H](NC1=O)C(=O)N[C@@H](CCCNC(=N)N)C(=O)NCC(=O)N[C@@H](CC(N)=O)C(=O)NCC(=O)N[C@@H](Cc1ccc(O)cc1)C(=O)N[C@H](C(=O)NCC(=O)N[C@@H](CO)C(=O)O)CSSC[C@H](NC(=O)[C@H](CC(=O)O)NC(=O)[C@H](CO)NC(=O)[C@H](CC(=O)O)NC(=O)[C@H](CCCNC(=N)N)NC(=O)[C@H](CCCNC(=N)N)NC3=O)C(=O)N1CCC[C@H]1C(=O)NCC(=O)N[C@@H](C)C(=O)N2 (HELM PEPTIDE1{G.G.R.C.F.R.I.L.K.K.C.R.R.D.S.D.C.P.G.A.C.I.C.R.G.N.G.Y.C.G.S}$PEPTIDE1,PEPTIDE1,4:R3-21:R3|PEPTIDE1,PEPTIDE1,11:R3-23:R3|PEPTIDE1,PEPTIDE1,17:R3-29:R3$$$V2.0)	> 5000 nM	> 5000 nM	> 5000 nM	> 5000 nM	30 nM	3 nM	–	Ki [2]: 275 nM; Ki (Plasminogen): 86 nM
CC(C)C[C@@H]1NC(=O)[C@H](CCC(N)=O)NC(=O)[C@H](Cc2c[nH]cn2)NC(=O)[C@@H]2CSCCC(=O)N3CN(CN(C3)C(=O)CCSC[C@H](NC(=O)[C@@H](CO)NC(=O)[C@H](N)CCCNC(=N)N)C(=O)N[C@@H](Cc3ccc(F)cc3)C(=O)N[C@@H](CCCNC(=N)N)C(=O)N[C@@H](CC(C)C)C(=O)N3CCC[C@H]3C(=O)N2)C(=O)CCSC[C@@H](C(=O)O)NC(=O)C[C@H](CCCNC(=N)N)NC1=O	–	–	–	–	–	–	–	Ki [7]: 0.37 nM
CC[C@H](C)[C@@H]1NC(=O)[C@H](CCCNC(=N)N)NC(=O)[C@H](Cc2ccccc2)NC(=O)[C@@H](NC(=O)[C@H](CCCNC(=N)N)NC(=O)CNC(=O)CN)CSSC[C@@H]2NC(=O)[C@H](C)NC(=O)CNC(=O)[C@@H]3CCCN3C(=O)[C@@H]3CSSC[C@@H](C(=O)NCC(=O)N[C@@H](CO)C(=O)O)NC(=O)[C@H](Cc4ccc(O)cc4)NC(=O)CNC(=O)[C@H](CC(N)=O)NC(=O)CNC(=O)[C@H](CCCNC(=N)N)NC(=O)[C@H](CSSC[C@H](NC(=O)[C@H](CCCCN)NC(=O)[C@H](CCCCN)NC(=O)CNC1=O)C(=O)N[C@@H](CCCNC(=N)N)C(=O)N[C@@H](CCCNC(=N)N)C(=O)N[C@@H](CC(=O)O)C(=O)N[C@@H](CO)C(=O)N[C@@H](CC(=O)O)C(=O)N3)NC(=O)[C@H]([C@@H](C)CC)NC2=O (HELM PEPTIDE1{G.G.R.C.F.R.I.G.K.K.C.R.R.D.S.D.C.P.G.A.C.I.C.R.G.N.G.Y.C.G.S}$PEPTIDE1,PEPTIDE1,4:R3-21:R3|PEPTIDE1,PEPTIDE1,11:R3-23:R3|PEPTIDE1,PEPTIDE1,17:R3-29:R3$$$V2.0) [listing 2 of 2 here]	> 5000 nM	> 5000 nM	> 5000 nM	> 5000 nM	1430 nM	2 nM	Stable	IC50 [2]: > 5000 nM; IC50 (Plasminogen): > 5000 nM; remaining at 8 h, 50 µM [9]: 100%
CC[C@H](C)[C@@H]1NC(=O)[C@@H]2CSSC[C@@H]3NC(=O)[C@H](CCC(N)=O)NC(=O)CNC(=O)CNC(=O)[C@H](CC(=O)O)NC(=O)[C@H](CO)NC(=O)CNC(=O)[C@H](CO)NC(=O)CNC(=O)[C@@H]4CSSC[C@H](NC(=O)[C@H](CC(=O)O)NC(=O)[C@H](CO)NC(=O)[C@H](CC(=O)O)NC(=O)[C@H](CCCNC(=N)N)NC(=O)[C@H](CCCNC(=N)N)NC(=O)[C@H](CSSC[C@H](NC1=O)C(=O)N[C@@H](CCCNC(=N)N)C(=O)NCC(=O)N[C@@H](CC(N)=O)C(=O)NCC(=O)N[C@@H](Cc1ccc(O)cc1)C(=O)N4)NC(=O)[C@H](CCCCN)NC(=O)[C@H](CCCCN)NC(=O)[C@H](CC(C)C)NC(=O)[C@H]([C@@H](C)CC)NC(=O)[C@H](CCCNC(=N)N)NC(=O)[C@H](Cc1ccccc1)NC3=O)C(=O)N1CCC[C@H]1C(=O)NCC(=O)N[C@@H](C)C(=O)N2 (HELM PEPTIDE1{A.C.I.C.R.G.N.G.Y.C.G.S.G.S.D.G.G.Q.C.F.R.I.L.K.K.C.R.R.D.S.D.C.P.G}$PEPTIDE1,PEPTIDE1,2:R3-19:R3|PEPTIDE1,PEPTIDE1,4:R3-26:R3|PEPTIDE1,PEPTIDE1,10:R3-32:R3|PEPTIDE1,PEPTIDE1,1:R1-34:R2$$$V2.0)	–	–	–	–	–	193 nM	Stable	–
